Read-outs that look alike come from different tables or passages of the source.
Assays:
[1] = molecular target: T1, His6-TEV-PPARγ-(234-505) (Homo sapiens, UniProt P37231); test: TR-FRET Assay to Measure Co-R Peptide Recruitment to PPARγ; assay type: biochemical; conditions: Co-R peptide (SMRT-ID2) recruitment; top final concentration 20 μM; read-out: TR-FRET i-Ag; AC50
T1 construct: The His6-TEV-PPARγ-(234-505) protein for assay was expressed and purified; TEV cleavage site (N); made in house
T1 sequence (P37231 234-505): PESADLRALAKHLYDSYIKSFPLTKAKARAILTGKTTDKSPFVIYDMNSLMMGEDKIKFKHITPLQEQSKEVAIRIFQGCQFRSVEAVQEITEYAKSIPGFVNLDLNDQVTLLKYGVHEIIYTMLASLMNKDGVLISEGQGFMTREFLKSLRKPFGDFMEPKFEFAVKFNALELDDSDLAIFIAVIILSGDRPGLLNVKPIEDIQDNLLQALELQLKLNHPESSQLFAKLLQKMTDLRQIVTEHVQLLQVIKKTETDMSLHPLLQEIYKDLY
Outline: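 His-tagged PPARγ (or controls) was preincubated with compound for 20 minutes at room temperature, then 5 nM anti-His terbium antibody and 200 nM FITC-labeled SMRT-ID2 corepressor peptide (final) were added for a further hour. TR-FRET signal was normalized to percent response using 500 nM T0070907 and DMSO controls.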

[2] = tested on: UM-UC-9 engineered cells; test: Cell proliferation / short-term viability assay, CellTiter-Glo 144 h; assay type: cell-based, human; conditions: read-out: CTGlo 144 h UMUC9.5, G150
Procedure: Cell Seeding for Proliferation Assay
UM-UC-9 engineered cells were cultured in Dulbecco's Modified Eagle Medium (DMEM) supplemented with 10% FBS, 25 mM glucose (high glucose), 4.0 mM L-glutamine, 2.0 mM GlutaMAX™, 1.0 mM pyruvate, 1.0% non-essential amino acids (NEAA) in a 95% humidified incubator at 37° C. with 5% CO2. Cell banks of UM-UC-9 engineered assay-ready cells (ARCs) were prepared from a very active growth stage. Vials of ARCs containing approximately 5×10^6 cells per vial were stored in liquid nitrogen vapor phase cryostorage until use.
For making assay plates, ARCs were recovered from cryostorage, strained in a […] cell strainer, verified for cell viability >90% and counted using a cell counter (Cellometer Auto 1000, Nexelom). Each cell line was seeded into 384-well plates (50 μl/well) using DMEM medium at a density previously determined to be in log growth phase 7 days post-seeding (500 cells/well) using a bulk reagent dispenser (Multidrop™ Combi, Thermo Scientific) with a large-bore plastic-tip cassette pre-sanitized with 70% ethanol. One plate of cells was designated as the pretreatment time-zero (T0) control. Freshly seeded plates were allowed to sit lidded for 30 minutes within a biosafety cabinet for cells to settle distributed within the plate wells uniformly and then placed into an automated incubator (STX110, Liconic) at 37° C., 5% CO2, and 95% relative humidity.
Preparation of Test Compound in Assay-Ready Plate
Compounds were stored in a low-temperature sample archive as 10 mM dimethyl sulfoxide (DMSO) solutions at −20° C. under reduced humidity (−45° C. dew point) and protected from light. All samples in the automated archive are stored in 2D barcoded polypropylene tubes, tracked through a laboratory information management system (LIMS), and have been verified for identity and purity by NMR (Chemistry, H3 Biomedicine) and by LCMS (Analytical Chemistry, H3 Biomedicine) at the time of sample registration. Identity by mass matching and purity are again verified at the time of sample request fulfillment by redundant LCMS methods (acidic and basic separation protocols; Analytical Chemistry, H3 Biomedicine). Samples retrieved from low-temperature archive storage were solubilized by heated sonication (Bransonic® Ultrasonic Bath, Branson), transferred (Microlab Starlet, Hamilton) and serially-diluted (Viaflo Assist, Integra) by low-volume liquid handlers, and tracked in LIMS by automation log files to create a ID barcoded master dose-response plate (MDR) to serve as a standard source for all assay-ready plates (ARP) used within an experiment. ARPs prepared by acoustic transfer (ATS-100, EDC) of nL volumes from the MDR source were heat-sealed (PlateLoc, Agilent) and stored at −20° C. prior to use (<7 days from production). Tracking of liquid transfers via acoustic dispenser log files were used to update the LIMS system for all ARP plate maps.
Measurement of Pretreatment Control Cells and Sample Anti-Proliferative Effects on Treated Cells
On day 0 (pretreatment cells) or day 7 (treated cells), a cell proliferation assay was performed using an automated robotic assay platform (ACell, High-Res Biosolutions). Cell ARP's were removed from incubation, their plate lid discarded, and using a bulk reagent dispenser (Multidrop™ Combi, Thermo Scientific with a small-bore metal-tip cassette) 25 μL (1/2 volume) of Cell Titer-Glo® 2.0 Cell Viability Assay reagent (Promega) was added to wells of columns 1-23 (column 24 will be used as plate background or positive control). Cell ARP's were incubated at room temperature in an automation hotel position for a total of 1.0 minute while the next plate was delivered to the bulk reagent dispenser and then lid-free cell ARP's were returned to incubate at 37° C. for 2.5 hours. […]

| AC50 [1] | Compound | IC50 ([2]; Homo sapiens, UM-UC-9, 144 h) | IC50 [2] |
| --- | --- | --- | --- |
| 5.3 nM | COc1cc(-c2cc(C(=O)N3CC[C@H](C(=O)Nc4ccc5c(c4)COB5O)CC34CC4)[nH]n2)c(F)cn1 [Example 523, (S)-4-(3-(5-fluoro-2-methoxypyridin-4-yl)-1H-pyrazole-5-carbonyl)-N-(1-hydroxy-1,3-dihydrobenzo[c][1,2]oxaborol-5-yl)-4-azaspiro[2.5]octane-7-carboxamide] | 54.3 nM |  |
| 83.3 nM | COc1cc(-c2cc(C(=O)N3CCC(C(=O)NCc4cccc5[nH]ncc45)CC3)n[nH]2)c(Cl)cn1 [Example 192, N-((1H-indazol-4-yl)methyl)-1-(5-(5-chloro-2-methoxypyridin-4-yl)-1H-pyrazole-3-carbonyl)piperidine-4-carboxamide] | 375 nM |  |
| 644 nM | COc1cc(-c2cc(C(=O)N3CCC(C(=O)NCc4ccc(F)cn4)CC3)n[nH]2)c(Cl)cn1 [Example 127, 1-(5-(5-chloro-2-methoxypyridin-4-yl)-1H-pyrazole-3-carbonyl)-N-((5-fluoropyridin-2-yl)methyl)piperidine-4-carboxamide] | 2930 nM |  |
| 109 nM | COc1cc(-c2cc(C(=O)N3CC[C@H](C(=O)NCC45CC(O)(C4)C5)CC34CC4)n[nH]2)c(F)cn1 [Example 336, (S)-4-(5-(5-fluoro-2-methoxypyridin-4-yl)-1H-pyrazole-3-carbonyl)-N-((3-hydroxybicyclo[1.1.1]pentan-1-yl)methyl)-4-azaspiro[2.5]octane-7-carboxamide] | 1050 nM |  |
| 394 nM | COc1cc(-c2cc(C(=O)N3CCC(C(=O)NCc4ncc(C(F)(F)F)cc4Cl)CC3)n[nH]2)c(Cl)cn1 [Example 193, 1-(5-(5-chloro-2-methoxypyridin-4-yl)-1H-pyrazole-3-carbonyl)-N-((3-chloro-5-(trifluoromethyl)pyridin-2-yl)methyl)piperidine-4-carboxamide] | 1200 nM |  |
| 321 nM | COc1cc(-c2cc(C(=O)N3CCC(C(=O)NCc4cncc(Cl)c4)CC3)n[nH]2)c(Cl)cn1 [Example 179, 1-(5-(5-chloro-2-methoxypyridin-4-yl)-1H-pyrazole-3-carbonyl)-N-((5-chloropyridin-3-yl)methyl)piperidine-4-carboxamide] | 1530 nM |  |
| 910 nM | COc1cc(-c2cc(C(=O)N3CCC(C(=O)NC4CCCC(F)(F)C4)CC3)n[nH]2)c(Cl)cn1 (centres unmarked) [Example 143, 1-(5-(5-chloro-2-methoxypyridin-4-yl)-1H-pyrazole-3-carbonyl)-N-(3,3-difluorocyclohexyl)piperidine-4-carboxamide] | 3310 nM |  |
| 635 nM | CCO[C@]1(C(F)(F)F)CC[C@@H](NC(=O)[C@@H]2CCN(C(=O)c3cc(-c4cc(C)ncn4)[nH]n3)C3(CC3)C2)CC1 (single isomer, unassigned) [Example 308-E] | 2560 nM |  |
| 74.2 nM | COc1cc(-c2cc(C(=O)N3CCC(C(=O)NCc4ccc5c(c4)C(C)(C)C(=O)N5)CC3)n[nH]2)c(Cl)cn1 [Example 242, 1-(5-(5-chloro-2-methoxypyridin-4-yl)-1H-pyrazole-3-carbonyl)-N-((3,3-dimethyl-2-oxoindolin-5-yl)methyl)piperidine-4-carboxamide] | 1660 nM |  |
| 49.6 nM | COc1cc(-c2cc(C(=O)N3CC[C@H](C(=O)NCc4cccc(Cl)c4)CC3(C)C)n[nH]2)c(Cl)cn1 (single isomer, unassigned) [Example 255-A] | 141 nM |  |
| 784 nM | COc1cc(-c2cc(C(=O)N3CC[C@H](C(=O)NC45COC(CO)(C4)C5)CC34CC4)n[nH]2)c(F)cn1 [Example 520, (S)-4-(5-(5-fluoro-2-methoxypyridin-4-yl)-1H-pyrazole-3-carbonyl)-N-(1-(hydroxymethyl)-2-oxabicyclo[2.1.1]hexan-4-yl)-4-azaspiro[2,5]octane-7-carboxamide] | > 10000 nM |  |
| 109 nM | COc1cc(-c2cc(C(=O)N3CC[C@@H](C(=O)NCc4cccc(Cl)c4)CC34CC4)n[nH]2)c(Cl)cn1 (single isomer, unassigned) [Example 245-B] | 415 nM |  |
| 11 nM | COc1cc(-c2cc(C(=O)N3CCC(C(=O)NCc4ccc5[nH]ccc5c4)CC3)n[nH]2)c(Cl)cn1 [Example 122, N-((1H-indol-5-yl)methyl)-1-(5-(5-chloro-2-methoxypyridin-4-yl)-1H-pyrazole-3-carbonyl)piperidine-4-carboxamide] | 66.1 nM |  |

| Compound | AC50 [1] | IC50 ([2]; Homo sapiens, UM-UC-9, 144 h) | IC50 [2] |
| --- | --- | --- | --- |
| (S)-4-(5-(5-fluoro-2-methoxypyridin-4-yl)-1H-pyrazole-3-carbonyl)-N—(((S)-3-(trifluoromethyl)-5,6-dihydro-8H-[1,2,4]triazolo[3,4-c][1,4]oxazin-6-yl)methyl)-4-azaspiro[2.5]octane-7-carboxamide and (S)-4-(5-(5-fluoro-2-methoxypyridin-4-yl)-1H-pyrazole-3-carbonyl)-N—(((R)-3-(trifluoromethyl)-5,6-dihydro-8H-[1,2,4]triazolo[3,4-c][1,4]oxazin-6-yl)methyl)-4-azaspiro[2.5]octane-7-carboxamide [Example 357] | 45.1 nM |  | 2190 nM |
| COc1cc(-c2cc(C(=O)N3CCC(C(=O)NC4CCOc5cc(F)cnc54)CC34CC4)n[nH]2)c(F)cn1 (mixture of isomers) [Example 383, (S)-4-(5-(5-fluoro-2-methoxypyridin-4-yl)-1H-pyrazole-3-carbonyl)-N—((R)-7-fluoro-3,4-dihydro-2H-pyrano[3,2-b]pyridin-4-yl)-4-azaspiro[2.5]octane-7-carboxamide and (S)-4-(5-(5-fluoro-2-methoxypyridin-4-yl)-1H-pyrazole-3-carbonyl)-N—((S)-7-fluoro-3,4-dihydro-2H-pyrano[3,2-b]pyridin-4-yl)-4-azaspiro[2.5]octane-7-carboxamide] | 33.1 nM |  | 43.1 nM |
| COc1cc(-c2cc(C(=O)N3CCC(C(=O)NC4CCC(C)CC4)CC3)n[nH]2)c(Cl)cn1 (mixture of isomers) [Example 101, 1-(5-(5-chloro-2-methoxypyridin-4-yl)-1H-pyrazole-3-carbonyl)-N-((1s,4s)-4-methylcyclohexyl)piperidine-4-carboxamide and 1-(5-(5-chloro-2-methoxypyridin-4-yl)-1H-pyrazole-3-carbonyl)-N-((1r,4r)-4-methylcyclohexyl)piperidine-4-carboxamide] | 29.4 nM |  | 305 nM |
